# According to PubChem BioAssay AID248 (DTP/NCI, 2004):
# Where “and” joins values, the source holds several entries; their conditions need not be identical. Equal values may be shown once. Inconclusive results and toxic doses are left out.
# System: L1210 leukemia ip in BDF1 mice, survival T/C
# Test: NCI In Vivo Anticancer Drug Screen. Data for tumor model L1210 Leukemia (intraperitoneal) in B6D2F1 (BDF1) mice
# Settings: endpoint: mean survival time, higher = longer survival
# Summary of the method: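 Read-out is survival time, reported as the treated-group measurement over the vehicle-control measurement.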
# [1] = dose: 100.0 mg/kg/injection, schedule: Q01DX009 (ip), vehicle: saline with Tween-80
# [2] = dose: 100.0 mg/kg/injection, schedule: Q04DX003 (ip), vehicle: saline with Tween-80
# [3] = dose: 200.0 mg/kg/injection, schedule: Q01DX009 (ip), vehicle: saline with Tween-80
# [4] = dose: 400.0 mg/kg/injection, schedule: Q01DX009 (ip), vehicle: saline with Tween-80
# [5] = dose: 100.0 mg/kg/injection, schedule: Q04DX002 (ip), vehicle: Klucel (hydroxypropylcellulose) (HPC)
# [6] = dose: 100.0 mg/kg/injection, schedule: Q01DX001 (ip), vehicle: saline
# [7] = dose: 200.0 mg/kg/injection, schedule: Q01DX001 (ip), vehicle: saline
# [8] = dose: 400.0 mg/kg/injection, schedule: Q01DX001 (ip), vehicle: saline
# [9] = dose: 100.0 mg/kg/injection, schedule: Q01DX005 (ip), vehicle: saline
# [10] = dose: 200.0 mg/kg/injection, schedule: Q01DX005 (ip), vehicle: saline
structure (smiles),measurement,setting,value
CC(=O)NS(=O)(=O)c1ccc(N)cc1,T/C,[1],94 % of control
same,T/C,[2],98 % of control
same,T/C,[3],94 % of control
same,T/C,"dose: 200.0 mg/kg/injection, schedule: Q04DX003 (ip), vehicle: saline with Tween-80",98 % of control
same,T/C,[4],95 % of control
same,T/C,"dose: 400.0 mg/kg/injection, schedule: Q04DX003 (ip), vehicle: saline with Tween-80",100 % of control
CSc1ccc(NC(=O)c2ccc([N+](=O)[O-])cc2)cc1,T/C,[5],95 % of control
same,T/C,"dose: 200.0 mg/kg/injection, schedule: Q04DX002 (ip), vehicle: Klucel (hydroxypropylcellulose) (HPC)",95 % of control
same,T/C,"dose: 400.0 mg/kg/injection, schedule: Q04DX002 (ip), vehicle: Klucel (hydroxypropylcellulose) (HPC)",92 % of control
CSc1nc(Cl)nc(C(Cl)Cl)c1Cl,T/C,"dose: 12.5 mg/kg/injection, schedule: Q01DX009 (ip), vehicle: other",93 % of control
same,T/C,"dose: 25.0 mg/kg/injection, schedule: Q01DX009 (ip), vehicle: other",107 % of control
same,T/C,"dose: 50.0 mg/kg/injection, schedule: Q01DX009 (ip), vehicle: other",89 % of control and 90 % of control
Nc1ncnc2nncnc12,T/C,"dose: 50.0 mg/kg/injection, schedule: Q01DX001 (ip), vehicle: carboxymethylcellulose (CMC)",93 % of control
same,T/C,"dose: 100.0 mg/kg/injection, schedule: Q01DX001 (ip), vehicle: carboxymethylcellulose (CMC)",93 % of control
CCN(CC)C(=S)SCn1nc(Cl)c2ccc([N+](=O)[O-])cc21,T/C,[6],98 % of control
same,T/C,[7],98 % of control
same,T/C,[8],91 % of control
N#CC1c2cc(OC(=O)c3ccccc3)ccc2C=CN1C(=O)c1ccccc1 (stereo not drawn),T/C,"dose: 100.0 mg/kg/injection, schedule: Q04DX003 (ip), vehicle: gum acacia",89 % of control
same,T/C,"dose: 200.0 mg/kg/injection, schedule: Q04DX003 (ip), vehicle: gum acacia",89 % of control
O=c1[nH]c(-c2ccccc2)nc(-c2ccccc2)c1CCO,T/C,[1],92 % of control
same,T/C,[3],86 % of control
same,T/C,[4],91 % of control
CSc1ncnc2c1ncn2C1OC(CO)C2OC(C)(C)OC21 (stereo not drawn),T/C,[9],112 % of control
same,T/C,[10],122 % of control
O=C1CCCCC1c1cccc2ccccc12 (stereo not drawn),T/C,"dose: 100.0 mg/kg/injection, schedule: Q01DX001 (sc), vehicle: olive oil, sesame oil, peanut oil",97 % of control
same,T/C,"dose: 200.0 mg/kg/injection, schedule: Q01DX001 (sc), vehicle: olive oil, sesame oil, peanut oil",104 % of control
same,T/C,"dose: 400.0 mg/kg/injection, schedule: Q01DX001 (sc), vehicle: olive oil, sesame oil, peanut oil",106 % of control
COC1C(/C=C/C(C)=O)OC2OC(C)(C)OC21 (stereo not drawn),T/C,"dose: 6.25 mg/kg/injection, schedule: Q01DX009 (ip), vehicle: saline",105 % of control
same,T/C,"dose: 12.5 mg/kg/injection, schedule: Q01DX009 (ip), vehicle: saline",105 % of control
same,T/C,"dose: 25.0 mg/kg/injection, schedule: Q01DX009 (ip), vehicle: saline",107 % of control
same,T/C,"dose: 50.0 mg/kg/injection, schedule: Q01DX009 (ip), vehicle: saline",98 % of control
same,T/C,"dose: 100.0 mg/kg/injection, schedule: Q01DX009 (ip), vehicle: saline",100 % of control
same,T/C,"dose: 200.0 mg/kg/injection, schedule: Q01DX009 (ip), vehicle: saline",98 % of control
COC(=O)C(CSC(c1ccc(N(C)C)cc1)c1ccc(N(C)C)cc1)NC(=O)OCc1ccccc1 (stereo not drawn),T/C,"dose: 75.0 mg/kg/injection, schedule: Q01DX001 (ip), vehicle: carboxymethylcellulose (CMC)",97 % of control
same,T/C,"dose: 300.0 mg/kg/injection, schedule: Q01DX001 (ip), vehicle: carboxymethylcellulose (CMC)",94 % of control
O=S(=O)(c1ccccc1)c1ccc(O)cc1,T/C,"dose: 50.0 mg/kg/injection, schedule: Q01DX001 (ip), vehicle: saline",95 % of control
same,T/C,[6],89 % of control
same,T/C,[7],108 % of control
same,T/C,[8],101 % of control
O=C(CS(=O)(=O)C/C(=N\Nc1ccc([N+](=O)[O-])cc1)c1ccccc1)c1ccccc1,T/C,"dose: 100.0 mg/kg/injection, schedule: Q04DX003 (ip), vehicle: saline",101 % of control
same,T/C,"dose: 200.0 mg/kg/injection, schedule: Q04DX003 (ip), vehicle: saline",113 % of control
same,T/C,"dose: 400.0 mg/kg/injection, schedule: Q04DX003 (ip), vehicle: saline",104 % of control
COc1cccc(NC(=O)N(CCCl)N=O)c1,T/C,"dose: 4.5 mg/kg/injection, schedule: Q01DX001 (ip), vehicle: carboxymethylcellulose (CMC)",122 % of control
same,T/C,"dose: 18.0 mg/kg/injection, schedule: Q01DX001 (ip), vehicle: carboxymethylcellulose (CMC)",159 % of control
same,T/C,"dose: 26.0 mg/kg/injection, schedule: Q01DX001 (ip), vehicle: carboxymethylcellulose (CMC)",151 % of control
same,T/C,"dose: 40.0 mg/kg/injection, schedule: Q01DX001 (ip), vehicle: carboxymethylcellulose (CMC)",188 % of control
same,T/C,"dose: 60.0 mg/kg/injection, schedule: Q01DX001 (ip), vehicle: carboxymethylcellulose (CMC)",87 % of control
same,T/C,"dose: 93.0 mg/kg/injection, schedule: Q01DX001 (ip), vehicle: carboxymethylcellulose (CMC)",87 % of control
Nc1ccc(C(=O)Nc2cccc(S(=O)(=O)F)c2)cc1,T/C,[6],107 % of control
same,T/C,[7],106 % of control
same,T/C,[8],90 % of control
Cc1ncc(CO)c(Nc2ccccc2)n1,T/C,"dose: 100.0 mg/kg/injection, schedule: Q01DX001 (ip), vehicle: Klucel (hydroxypropylcellulose) (HPC)",90 % of control
same,T/C,"dose: 200.0 mg/kg/injection, schedule: Q01DX001 (ip), vehicle: Klucel (hydroxypropylcellulose) (HPC)",108 % of control
same,T/C,"dose: 400.0 mg/kg/injection, schedule: Q01DX001 (ip), vehicle: Klucel (hydroxypropylcellulose) (HPC)",96 % of control
O=C(/C=C\C(=O)Nc1ccc(C2=NCCN2)cc1)Nc1ccc(C2=NCCN2)cc1,T/C,"dose: 15.0 mg/kg/injection, schedule: Q01DX Z (ip), vehicle: saline",124 % of control
same,T/C,"dose: 30.0 mg/kg/injection, schedule: Q01DX Z (ip), vehicle: saline",177 % of control
same,T/C,"dose: 30.0 mg/kg/injection, schedule: Q01DX Z (oral), vehicle: saline",103 % of control
same,T/C,"dose: 60.0 mg/kg/injection, schedule: Q01DX Z (ip), vehicle: saline",170 % of control
same,T/C,"dose: 60.0 mg/kg/injection, schedule: Q01DX Z (oral), vehicle: saline",114 % of control
same,T/C,"dose: 120.0 mg/kg/injection, schedule: Q01DX Z (oral), vehicle: saline",103 % of control
same,T/C,"dose: 240.0 mg/kg/injection, schedule: Q01DX Z (oral), vehicle: saline",102 % of control
CSc1nc(Cl)cc2c1ncn2C1OC(CO)C(O)C1O (stereo not drawn),T/C,[9],100 % of control
same,T/C,[10],100 % of control
O=C(C[n+]1ccc2ccccc2c1)c1cccs1,T/C,"dose: 25.0 mg/kg/injection, schedule: Q04DX002 (ip), vehicle: Klucel (hydroxypropylcellulose) (HPC)",90 % of control and 91 % of control
same,T/C,"dose: 50.0 mg/kg/injection, schedule: Q04DX002 (ip), vehicle: Klucel (hydroxypropylcellulose) (HPC)",95 % of control and 90 % of control
same,T/C,[5],98 % of control
CN(C)c1nnc([N+](=O)[O-])s1,T/C,"dose: 62.0 mg/kg/injection, schedule: Q04DX003 (ip), vehicle: Klucel (hydroxypropylcellulose) (HPC)",93 % of control
same,T/C,"dose: 123.0 mg/kg/injection, schedule: Q04DX003 (ip), vehicle: Klucel (hydroxypropylcellulose) (HPC)",87 % of control
CC(=O)OI(OC(C)=O)c1ccccc1,T/C,"dose: 100.0 mg/kg/injection, schedule: Q01DX009 (ip), vehicle: Klucel (hydroxypropylcellulose) (HPC)",98 % of control
same,T/C,"dose: 200.0 mg/kg/injection, schedule: Q01DX009 (ip), vehicle: Klucel (hydroxypropylcellulose) (HPC)",102 % of control
CN(C)CCCC1C2CCC(C2)C1C#N (stereo not drawn),T/C,"dose: 12.5 mg/kg/injection, schedule: Q01DX009 (ip), vehicle: Klucel (hydroxypropylcellulose) (HPC)",104 % of control
same,T/C,"dose: 25.0 mg/kg/injection, schedule: Q01DX009 (ip), vehicle: Klucel (hydroxypropylcellulose) (HPC)",95 % of control
same,T/C,"dose: 25.0 mg/kg/injection, schedule: Q04DX003 (ip), vehicle: Klucel (hydroxypropylcellulose) (HPC)",96 % of control
same,T/C,"dose: 50.0 mg/kg/injection, schedule: Q01DX009 (ip), vehicle: Klucel (hydroxypropylcellulose) (HPC)",104 % of control
same,T/C,"dose: 50.0 mg/kg/injection, schedule: Q04DX003 (ip), vehicle: Klucel (hydroxypropylcellulose) (HPC)",93 % of control
O=C(N/N=C/c1ccc(Cl)cc1Cl)c1cccc2ccccc12,T/C,[6],92 % of control
same,T/C,[8],86 % of control
CCNC(C)CC(C)C (stereo not drawn),T/C,"dose: 25.0 mg/kg/injection, schedule: Q01DX009 (ip), vehicle: saline with Tween-80",101 % of control
same,T/C,"dose: 25.0 mg/kg/injection, schedule: Q04DX003 (ip), vehicle: saline with Tween-80",95 % of control
same,T/C,"dose: 50.0 mg/kg/injection, schedule: Q01DX009 (ip), vehicle: saline with Tween-80",92 % of control
same,T/C,"dose: 50.0 mg/kg/injection, schedule: Q04DX003 (ip), vehicle: saline with Tween-80",92 % of control
same,T/C,[1],98 % of control
same,T/C,[2],93 % of control and 96 % of control
